Drawing on ChEMBL document CHEMBL6096707, “UBE2N: Hope on the Cancer Front, How to Inhibit This Promising Target Prospect?” (J Med Chem, 2025), this text covers IC50 for five compounds.

In experiment [1] the target is T1, Ubiquitin-conjugating enzyme E2 N (Homo sapiens, UniProt P61088).
T1 sequence (P61088 whole entry): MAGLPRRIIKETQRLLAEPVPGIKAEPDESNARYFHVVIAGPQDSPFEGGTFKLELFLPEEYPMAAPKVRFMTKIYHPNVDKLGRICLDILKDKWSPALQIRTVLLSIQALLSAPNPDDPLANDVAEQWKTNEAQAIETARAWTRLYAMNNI
The experiment is described as follows: Inhibition of UBE2N (unknown origin) by TR-FRET analysis.

Experiment [2] concerns the target T1, Ubiquitin-conjugating enzyme E2 N. In words: Inhibition of UBE2N (unknown origin).
Experiment [3] is described as follows: Inhibition of HDM2/p53 (unknown origin) protein-protein interaction. Details: species or system Homo sapiens.

Broadly, the IC50 is the midpoint of a concentration-inhibition curve. A lower IC50 goes with higher potency. `O=C(NCC1CCN(Cc2cccc(Cl)c2)CC1)[C@@H]1CCCN(c2ncnc3c2nc2n3CCCC2)C1` gave an IC50 in experiment [1] of 781 nM. On to `C=C1CC(C)(C)[C@@H](/C=C\[C@@H](C)[C@H]2CC[C@H]3[C@@H]4C[C@H](OS(=O)(=O)O)[C@H]5C[C@@H](O)CC[C@]5(C)[C@H]4CC[C@]23C)[C@H]1CC(O)[C@@H](C)[C@H]1CC[C@H]2[C@@H]3C[C@H](OS(=O)(=O)O)[C@H]4C[C@H](OS(=O)(=O)O)[C@@H](OS(=O)(=O)O)C[C@]4(C)[C@H]3CC[C@]12C` (stereo partly specified), for which, in experiment [2], 130 nM corresponded to half-maximal inhibition (IC50).

`COC(=O)c1cc2c(cn1)[nH]c1ccc(O)cc12` returned an IC50 in experiment [2] of 16000 nM. `C[C@@H](N)[C@@H](O)C/C=C\C/C=C\C/C=C\C/C=C\C/C=C\C/C=C\CCCCCC[C@H](O)[C@@H](C)N` [LEUCETTAMOL A]: in experiment [3], 150 µM corresponded to half-maximal inhibition (IC50). As to `CC1=CC(C)(C)[C@@H](/C=C\[C@@H](C)[C@H]2CC[C@H]3[C@@H]4C[C@H](OS(=O)(=O)O)[C@H]5C[C@H](O)[C@@H](OS(=O)(=O)O)C[C@]5(C)[C@H]4CC[C@]23C)[C@H]1CC[C@@H](C)[C@H]1CC[C@H]2[C@@H]3C[C@H](OS(=O)(=O)O)[C@H]4C[C@H](OS(=O)(=O)O)[C@@H](OS(=O)(=O)O)C[C@]4(C)[C@H]3CC[C@]12C` [MANADOSTEROL A], the IC50 in experiment [3] came to 160 µM; in experiment [2], 90 nM.
